Here are results for three molecules from patent US7125984B2, “Glucuronofucan sulfate” (Takara Bio Inc., priority 2000, dated 2006).

In one data set the test system is α-D-glucuronidase. As to the kind of experiment: effect of calcium salt, protein and sodium chloride on the enzymatic reaction of α-D-glucuronidase. In kind it is biochemical, Fucophilus fucoidanolyticus strain SI-1234. The settings on record: for activation of α-D-glucuronidase (relative activity versus concentration in the reaction system): result in words. An excerpt: (§1) Then, the relationship between the relative activity of the α-D-glucuronidase or the endo-α-L-fucosidase of the present invention and the concentration of calcium chloride contained in the reaction system was examined.
(§2) Then, the relationship between the relative activity of the α-D-glucuronidase or the endo-α-L-fucosidase of the present invention and the concentration of bovine serum albumin contained in the reaction system was examined.
(§3) Then, the relationship between the relative activity of the α-D-glucuronidase or the endo-α-L-fucosidase of the present invention and the concentration of sodium chloride contained in the reaction system was examined.

The next data set concerns endo-α-L-fucosidase. Put plainly: effect of calcium salt, protein and sodium chloride on the enzymatic reaction of endo-α-L-fucosidase. Format: biochemical, Fucophilus fucoidanolyticus strain SI-1234. The settings on record: for activation of endo-α-L-fucosidase (relative activity versus concentration in the reaction system): result in words.
Source text: as §1, §2, §3

Where [1] appears, read: oligosaccharide having a low molecular weight as substrate.
Setting [2] is: sulfated glucuronofucan having a high molecular weight as substrate.

Take `[Ca+2].[Cl-].[Cl-]` [calcium chloride]: the “activation of α-D-glucuronidase (relative activity versus concentration in the reaction system)” value in the data set on α-D-glucuronidase is listed as “activated”. Further, the “activation of endo-α-L-fucosidase (relative activity versus concentration in the reaction system)” value in the data set on endo-α-L-fucosidase is “activated”.
`[Cl-].[Na+]` [sodium chloride]: the “activation of α-D-glucuronidase” value is given as “not activated” with α-D-glucuronidase (setting [1]) and “activates” in the data set with α-D-glucuronidase (setting [2]). For the same molecule, the “activation of endo-α-L-fucosidase” value with endo-α-L-fucosidase (setting [1]) is “not activated”; with endo-α-L-fucosidase (setting [2]) it was “activates”.
Turning to “bovine serum albumin: protein added to the reaction system as enzyme activator”, in the data set on α-D-glucuronidase, the “activation of α-D-glucuronidase (relative activity versus concentration in the reaction system)” value is “activated”. In addition, the “activation of endo-α-L-fucosidase (relative activity versus concentration in the reaction system)” value in the data set with endo-α-L-fucosidase was “activated”.
